Reference: patent publication US20210238170A1, “5,5-Difluoro- and 5-Fluoro-5-Methyl-C-Glycoside Derivatives Useful As Dual SGLT1 / SGLT2 Modulators” (Janssen Pharmaceutica NV, priority 2018, published 2021)

Legend:
SD rats = test: Oral Glucose Tolerance Test (OGTT) in SD rats: blood glucose excursion AUC and urine glucose excretion; format: in vivo, rat; conditions: mean ± SE; for response vs control in vivo at 1 mg/kg / response vs control in vivo at 10 mg/kg: Rattus norvegicus, 2 h, n = 8, read-out: 120-min Blood Glucose AUC vs Vehicle (%); for Urine Glucose Excretion (g/0-4 hr): n = 8
Protocol: Biological Example 2: In Vivo Assay
Oral Glucose Tolerance Test (OGTT) in SD Rats
Overnight fasted SD rats were allocated into vehicle or test compound treatment groups based on their body weights (n=8 in each group). The animals were orally dosed with vehicle or test compound at a volume of 10 ml/kg at 30-minute prior to OGTT. The animals then received an OGTT challenge with 2 g/kg (50% glucose solution at the volume of 4 ml/kg, orally). The animals were immediately transferred into metabolic cages after they were dosed with the glucose. Blood glucose levels were measured at 0 (pre-OGTT), 30, 60, and 120 minutes after OGTT using one-touch Glucometer. Blood glucose excursion AUC (area under the curve of blood glucose) was determined from the blood glucose levels measured at the timepoints.
Table 9 below, presents the measured efficacy of the test compound(s), expressed as the percentage (%) of blood glucose AUC vs that in vehicle group. The data is interpreted such that, the smaller the percentage of blood glucose AUC of compound vs vehicle, the greater the efficacy of the test compound. Urine volume and urine glucose concentrations (tested by using Olympus system with Genzyme diagnostics assay reagent) were measured to determine the urine glucose excretion (UGE) in 4-hr period after OGTT (0-4 hours).

human SGLT2 = molecular target: T1, human SGLT2 (Homo sapiens, UniProt P31639); test: SGLT2 in vitro assay: Na-dependent 14C-AMG uptake in CHO-K1 cells stably expressing human SGLT2; format: cell-based; conditions: for IC50: 14C-AMG uptake
T1 construct: expressed in transfected cells
T1 sequence (P31639 1-672): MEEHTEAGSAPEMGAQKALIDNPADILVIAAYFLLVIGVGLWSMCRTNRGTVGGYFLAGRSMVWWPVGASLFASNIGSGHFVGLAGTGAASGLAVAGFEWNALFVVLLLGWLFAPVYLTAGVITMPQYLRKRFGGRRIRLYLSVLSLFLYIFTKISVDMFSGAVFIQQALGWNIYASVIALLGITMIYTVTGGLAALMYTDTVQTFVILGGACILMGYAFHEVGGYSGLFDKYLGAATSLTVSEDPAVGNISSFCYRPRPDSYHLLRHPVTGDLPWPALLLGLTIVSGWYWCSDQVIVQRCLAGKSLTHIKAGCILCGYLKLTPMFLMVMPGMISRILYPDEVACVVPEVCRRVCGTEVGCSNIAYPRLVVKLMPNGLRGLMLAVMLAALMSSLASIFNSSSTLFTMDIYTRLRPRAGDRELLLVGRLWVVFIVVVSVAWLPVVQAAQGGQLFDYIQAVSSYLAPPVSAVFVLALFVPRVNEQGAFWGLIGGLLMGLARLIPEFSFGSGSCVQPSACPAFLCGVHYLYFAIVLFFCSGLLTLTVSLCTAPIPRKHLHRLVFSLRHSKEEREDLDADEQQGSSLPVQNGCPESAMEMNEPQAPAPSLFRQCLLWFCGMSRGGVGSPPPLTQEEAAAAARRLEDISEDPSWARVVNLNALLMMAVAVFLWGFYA
Summary of the method: (§1)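 CHO-K1 cells stably expressing human SGLT1 or SGLT2, induced with 10 mM Na-butyrate for 24 h. Compounds (0.001–10 μM) in Na+-containing HEPES/Tris buffer pH 7.4 were applied for 10 min, then 14C-AMG ([…]) for 2 h at 37°C; Na-dependent uptake read by scintillation; %-inhibition or IC50.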

human SGLT1 = molecular target: T2, human SGLT1 (Homo sapiens, UniProt P13866); test: SGLT1 in vitro assay: Na-dependent 14C-AMG uptake in CHO-K1 cells stably expressing human SGLT1; format: cell-based; conditions: for IC50: 14C-AMG uptake
T2 construct: expressed in transfected cells
T2 sequence (P13866 1-664): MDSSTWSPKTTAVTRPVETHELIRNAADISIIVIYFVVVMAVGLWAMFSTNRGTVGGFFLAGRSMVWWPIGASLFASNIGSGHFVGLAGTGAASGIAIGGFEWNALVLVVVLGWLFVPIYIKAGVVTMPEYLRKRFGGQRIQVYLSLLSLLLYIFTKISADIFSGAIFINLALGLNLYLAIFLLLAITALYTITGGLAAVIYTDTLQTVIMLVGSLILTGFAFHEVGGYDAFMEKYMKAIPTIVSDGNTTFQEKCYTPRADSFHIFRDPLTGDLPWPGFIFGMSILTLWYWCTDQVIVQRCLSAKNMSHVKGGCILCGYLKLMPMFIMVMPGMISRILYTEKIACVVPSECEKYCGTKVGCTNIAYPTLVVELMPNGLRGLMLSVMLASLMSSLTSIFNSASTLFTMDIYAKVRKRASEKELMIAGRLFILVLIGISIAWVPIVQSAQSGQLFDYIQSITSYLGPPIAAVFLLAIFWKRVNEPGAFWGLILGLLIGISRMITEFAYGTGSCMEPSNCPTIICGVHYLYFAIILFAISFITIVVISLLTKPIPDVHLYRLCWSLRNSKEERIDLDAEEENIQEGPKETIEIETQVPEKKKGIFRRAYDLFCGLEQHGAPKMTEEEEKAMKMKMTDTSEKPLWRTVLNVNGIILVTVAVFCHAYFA
Summary of the method: as §1

inhibition at 0.3 µM (human SGLT2; 0.3 μM, CHO-K1 cells expressing human SGLT2, read-out: SGLT2 % Inh @ 0.3 μM) [%]	IC50 (human SGLT2; CHO-K1 cells expressing human SGLT2) [nM]	inhibition at 0.3 µM (human SGLT1; 0.3 μM, CHO-K1 cells expressing human SGLT1, read-out: SGLT1 % Inh @ 0.3 μM) [%]	IC50 (human SGLT1; CHO-K1 cells expressing human SGLT1) [nM]	IC50 (human SGLT2; CHO-K1 cells stably expressing human SGLT2, compounds of formula (I) where R0 is fluoro) [nM]	IC50 (human SGLT1; CHO-K1 cells stably expressing human SGLT1, compounds of formula (I) where R0 is fluoro) [nM]	SMILES	response vs control in vivo at 1 mg/kg (SD rats; oral dose 1 mg/kg) [%]	response vs control in vivo at 10 mg/kg (SD rats; oral dose 10 mg/kg) [%]	Urine Glucose Excretion (g/0-4 hr) (SD rats; oral dose 1 mg/kg)	Urine Glucose Excretion (g/0-4 hr) (SD rats; oral dose 10 mg/kg)
89.4	2.1	45.3	269	–	–	C[C@]1(F)[C@H](O)[C@@H](O)[C@H](c2cc(Cc3ccc4c(c3)OCCO4)c(Cl)cc2O)O[C@@H]1CO [Compound 3, (2S,3R,4R,5S,6R)-2-[4-chloro-5-(2,3-dihydro-1,4-benzodioxin-6-ylmethyl)-2-hydroxy-phenyl]-5-fluoro-6-(hydroxymethyl)-5-methyl-tetrahydropyran-3,4-diol]	91.3 ± 2	69.3 ± 1.9	0.001	0.001
–	–	–	–	3.8	56	Cc1cc(O)c([C@@H]2O[C@H](CO)C(F)(F)[C@H](O)[C@H]2O)cc1Cc1cc2ccccc2s1 [Compound 25, (2S,3R,4R,6R)-2-(5-(benzo[b]thiophen-2-ylmethyl)-2-hydroxy-4-methylphenyl)-5,5-difluoro-6-(hydroxymethyl)tetrahydro-2H-pyran-3,4-diol]	67.8 ± 1.7	36.5 ± 1.1	0.001	0.499 ± 0.04
